Data: publication PMC8587000, “Pyridinone Derivatives as Interesting Formyl Peptide Receptor (FPR) Agonists for the Treatment of Rheumatoid Arthritis” (Molecules, 2021)

Assays:
human neutrophils (hPMN) = experiment: Ca2+ mobilization in human neutrophils (hPMN); type: cell-based; conditions: Neutrophil; for Emax: read-out: hPMN Efficacy (converted)
Source text: Blood was collected from healthy donors in accordance with a protocol approved by the Institutional Review Board at Montana State University. Neutrophils were purified from the blood using dextran sedimentation, followed by Histopaque 1077 gradient separation and hypotonic lysis of red blood cells. Isolated neutrophils were washed twice and resuspended in HBSS^-. Neutrophil preparations were routinely >95% pure, as determined by light microscopy, and >98% viable, as determined by trypan blue exclusion.
Changes in intracellular Ca^2+ were measured with a FlexStation II scanning fluorometer (Molecular Devices, Sunnyvale, CA, USA). The cells, suspended in Hank’s balanced salt solution without Ca^2+ and Mg^2+ but with 10 mM HEPES (HBSS^−), were loaded with 1.25 μg/mL Fluo-4 AM dye and incubated for 30 min in the dark at 37 °C. After dye loading, the cells were washed with HBSS^- containing 10 mM HEPES, resuspended in HBSS^+ containing Ca^2+, Mg^2+, and 10 mM HEPES (HBSS^+), and aliquoted into the wells of flat-bottom, half-area-well black microtiter plates (2 × 10^5 cells/well). For the evaluation of direct agonist activity, compounds of interest were added from a source plate containing dilutions of test compounds in HBSS^+, and changes in fluorescence were monitored (λex = 485 nm, λem = 538 nm) every 5 s for 240 s at room temperature after the automated addition of compounds. Maximum change in fluorescence during the first 3 min, expressed in arbitrary units over baseline, was used to determine a response. […] Curve fitting (5–6 points) and calculation of median effective inhibitory concentrations (IC50) were performed by nonlinear regression analysis of the dose–response curves generated using Prism 9 (GraphPad Software, Inc., San Diego, CA, USA).

FPR1 = target: T1, FPR1 (Homo sapiens, UniProt P21462); experiment: Ca2+ mobilization in FPR1-transfected HL60 cells; type: cell-based; conditions: for Emax: HL-60, read-out: FPR1-HL60 Efficacy (converted)
T1 construct: expressed in transfected cells; host or cells: HL60 (human promyelocytic leukemia), stably transfected; gift from Dr. Marie-Josephe Rabiet
T1 sequence (P21462 1-350): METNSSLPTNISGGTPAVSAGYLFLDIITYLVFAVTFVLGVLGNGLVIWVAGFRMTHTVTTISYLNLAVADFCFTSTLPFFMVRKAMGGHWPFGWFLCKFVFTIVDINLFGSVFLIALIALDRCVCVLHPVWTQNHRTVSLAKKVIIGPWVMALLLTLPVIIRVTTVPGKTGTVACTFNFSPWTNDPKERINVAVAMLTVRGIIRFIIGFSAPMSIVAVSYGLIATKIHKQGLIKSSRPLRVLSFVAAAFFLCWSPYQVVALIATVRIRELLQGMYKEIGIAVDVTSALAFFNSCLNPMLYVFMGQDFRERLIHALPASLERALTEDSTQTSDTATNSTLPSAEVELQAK
Experimental: (§1) Human promyelocytic leukemia HL60 cells stably transfected with FPR1 (FPR1-HL60 cells) or FPR2 (FPR2-HL60 cells) (kind gift from Dr. Marie-Josephe Rabiet, Université Joseph Fourier, Grenoble, France) were cultured in RPMI 1640 medium supplemented with 10% heat-inactivated fetal calf serum, 10 mM HEPES, 100 μg/mL streptomycin, 100 U/mL penicillin, and G418 (1 mg/mL). G418 was removed in the last round of culture before assays were performed.

FPR2 = target: T2, FPR2 (Homo sapiens, UniProt P25090); experiment: Ca2+ mobilization in FPR2-transfected HL60 cells; type: cell-based; conditions: for Emax: HL-60, read-out: FPR2-HL60 Efficacy (converted); for selectivity index (SI) FPR1/FPR2: ratio of EC50 FPR1-HL60 / FPR2-HL60
T2 construct: expressed in transfected cells; host or cells: HL60 (human promyelocytic leukemia), stably transfected; gift from Dr. Marie-Josephe Rabiet
T2 sequence (P25090 1-351): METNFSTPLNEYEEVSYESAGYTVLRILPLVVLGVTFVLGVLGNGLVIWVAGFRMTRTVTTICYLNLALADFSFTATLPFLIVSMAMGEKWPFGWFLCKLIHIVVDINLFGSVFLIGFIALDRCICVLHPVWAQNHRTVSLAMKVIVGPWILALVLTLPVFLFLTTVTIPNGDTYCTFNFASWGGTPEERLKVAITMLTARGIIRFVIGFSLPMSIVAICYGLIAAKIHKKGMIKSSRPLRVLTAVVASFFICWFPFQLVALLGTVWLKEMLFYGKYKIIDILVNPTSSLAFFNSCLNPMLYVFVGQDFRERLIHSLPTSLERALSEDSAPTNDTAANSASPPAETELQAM
Experimental: as §1

Row | Compound | EC50 (human neutrophils (hPMN)) | Emax (human neutrophils (hPMN)) | melting point | EC50 (FPR1) | Emax (FPR1) | EC50 (FPR2) | Emax (FPR2) | selectivity index (SI) FPR1/FPR2 (FPR2)
1 | Cc1c(C(=O)O)cc(C#N)c(=O)n1CC(=O)Nc1ccc(Br)cc1 [Compound 2, 1-{2-[(4-Bromophenyl)amino]-2-oxoethyl}-5-cyano-2-methyl-6-oxo-1,6-dihydropyridine-3-carboxylic acid] | 4.3 ± 1.5 µM | 120% | 180 to 182 °C (dec.) | 3.5 ± 0.9 µM | 100% | 9.2 ± 1.9 µM | 100% | –
2 | CCCOC(=O)c1cc(C#N)c(=O)n(CC(=O)Nc2ccc(Br)cc2)c1C [Compound 4a, Propyl 1-{2-[(4-bromophenyl)amino]-2-oxoethyl}-5-cyano-2-methyl-6-oxo-1,6-dihydropyridine-3-carboxylate] | 6.4 ± 1.7 µM | 115% | 193 to 195 °C (dec.) | 16.3 ± 3.4 µM | 115% | 3.2 ± 0.6 µM | 140% | –
3 | CCCCOC(=O)c1cc(C#N)c(=O)n(CC(=O)Nc2ccc(Br)cc2)c1C [Compound 4b, Butyl 1-{2-[(4-bromophenyl)amino]-2-oxoethyl}-5-cyano-2-methyl-6-oxo-1,6-dihydropyridine-3-carboxylate] | 27.9 ± 3.2 µM | 110% | 109 to 111 °C (dec.) | 29.7 ± 4.6 µM | 70% | 18.3 ± 4.2 µM | 75% | –
4 | Cc1c(C(=O)OC(C)C)cc(C#N)c(=O)n1CC(=O)Nc1ccc(Br)cc1 [Compound 4c, Isopropyl 1-{2-[(4-bromophenyl)amino]-2-oxoethyl}-5-cyano-2-methyl-6-oxo-1,6-dihydropyridine-3-carboxylate] | 10.2 ± 1.9 µM | 120% | 223 to 224 °C | 7.7 ± 1.7 µM | 180% | 8.4 ± 1.7 µM | 85% | –
5 | COc1cccc(COC(=O)c2cc(C#N)c(=O)n(CC(=O)Nc3ccc(Br)cc3)c2C)c1 [Compound 4d, 3-Methoxybenzyl 1-{2-[(4-bromophenyl)amino]-2-oxoethyl}-5-cyano-2-methyl-6-oxo-1,6-dihydropyridine-3-carboxylate] | 12.7 ± 3.9 µM | 65% | – | 20.8 ± 3.7 µM | 85% | 14.1 ± 3.8 µM | 100% | –
6 | COc1cccc(CCOC(=O)c2cc(C#N)c(=O)n(CC(=O)Nc3ccc(Br)cc3)c2C)c1 [Compound 4e, 3-Methoxyphenethyl 1-{2-[(4-bromophenyl)amino]-2-oxoethyl}-5-cyano-2-methyl-6-oxo-1,6-dihydropyridine-3-carboxylate] | 17.9 ± 4.2 µM | 65% | – | 24.1 ± 5.2 µM | 70% | 17.3 ± 4.1 µM | 75% | –
7 | Cc1c(C(N)=O)cc(C#N)c(=O)n1CC(=O)Nc1ccc(Br)cc1 [Compound 6, 1-{2-[(4-Bromophenyl)amino]-2-oxoethyl}-5-cyano-2-methyl-6-oxo-1,6-dihydropyridine-3-carboxamide] | 29.1 ± 3.6 µM | 90% | – | 27.1 ± 4.2 µM | 60% | 8.4 ± 0.6 µM | 125% | –
8 | CNC(=O)c1cc(C#N)c(=O)n(CC(=O)Nc2ccc(Br)cc2)c1C [Compound 8a, 1-{2-[(4-Bromophenyl)amino]-2-oxoethyl}-5-cyano-N,2-dimethyl-6-oxo-1,6-dihydropyridine-3-carboxamide] | 4.9 ± 1.2 µM | 105% | > 300 °C (dec.) | 2.2 ± 0.6 µM | 105% | 1.3 ± 0.4 µM | 115% | –
9 | CCNC(=O)c1cc(C#N)c(=O)n(CC(=O)Nc2ccc(Br)cc2)c1C [Compound 8b, 1-{2-[(4-Bromophenyl)amino]-2-oxoethyl}-5-cyano-N-ethyl-2-methyl-6-oxo-1,6-dihydropyridine-3-carboxamide] | 11.4 ± 3.1 µM | 80% | 290 °C (dec.) | 21.2 ± 1.2 µM | 145% | 3.3 ± 0.2 µM | 120% | 6
10 | CCCNC(=O)c1cc(C#N)c(=O)n(CC(=O)Nc2ccc(Br)cc2)c1C [Compound 8c, 1-{2-[(4-bromophenyl)amino]-2-oxoethyl}-5-cyano-2-methyl-6-oxo-N-propyl-1,6-dihydropyridine-3-carboxamide] | 7.2 ± 1.6 µM | 70% | 274 to 276 °C (dec.) | 7 ± 0.7 µM | 120% | 1.3 ± 0.1 µM | 135% | –
11 | CCCCNC(=O)c1cc(C#N)c(=O)n(CC(=O)Nc2ccc(Br)cc2)c1C [Compound 8d, 1-{2-[(4-Bromophenyl)amino]-2-oxoethyl}-N-butyl-5-cyano-2-methyl-6-oxo-1,6-dihydropyridine-3-carboxamide] | 4 ± 0.9 µM | 70% | 261 to 263 °C (dec.) | 9.1 ± 1.4 µM | 140% | 1 ± 0.4 µM | 130% | 9
12 | Cc1c(C(=O)N(C)C)cc(C#N)c(=O)n1CC(=O)Nc1ccc(Br)cc1 [Compound 8e, 1-{2-[(4-Bromophenyl)amino]-2-oxoethyl}-5-cyano-N,N,2-trimethyl-6-oxo-1,6-dihydropyridine-3-carboxamide] | 20.8 ± 4.8 µM | 110% | 122 to 124 °C | 18 ± 3.5 µM | 110% | 2.4 ± 1.2 µM | 150% | 7.5
13 | COc1ccc(C(=O)c2cc(C(N)=O)c(=O)n(CC(=O)Nc3ccc(Br)cc3)c2C)cc1 [Compound 10, 1-{2-[(4-bromophenyl)amino]-2-oxoethyl}-5-(4-methoxybenzoyl)-6-methyl-2-oxo-1,2-dihydropyridine-3-carboxamide] | 7.5 ± 2.1 µM | 120% | – | 4.4 ± 0.5 µM | 105% | 3.4 ± 0.7 µM | 130% | –
14 | COc1ccc(C(=O)c2cc(C#N)c(=O)n(CC(=O)Nc3ccc(Br)cc3)c2C)cc1 [Compound 11, N-(4-bromophenyl)-2-[3-cyano-5-(4-methoxybenzoyl)-6-methyl-2-oxopyridin-1(2H)-yl]acetamide] | 7.8 ± 2.2 µM | 120% | – | 5.2 ± 0.4 µM | 105% | 1.9 ± 0.2 µM | 110% | –
15 | COc1cccc(-c2cc(C#N)c(=O)n(CC(=O)Nc3cccc(O)c3)c2C)c1 [Compound 13b, 2-[3-Cyano-5-(3-methoxyphenyl)-6-methyl-2-oxopyridin-1(2H)-yl]-N-(3-hydroxyphenyl) acetamide] | – | – | 128 to 130 °C | – | – | – | – | –
16 | COc1cccc(-c2cc(C#N)c(=O)n(CC(=O)Nc3ccc(O)cc3)c2C)c1 [Compound 13c, 2-[3-Cyano-5-(3-methoxyphenyl)-6-methyl-2-oxopyridin-1(2H)-yl]-N-(4-hydroxyphenyl) acetamide] | – | – | 127 to 129 °C | – | – | – | – | –
17 | Cc1c(-c2cccc(O)c2)cc(C#N)c(=O)n1CC(=O)Nc1cccc(O)c1 [Compound 14b, 2-[3-Cyano-5-(3-hydroxyphenyl)-6-methyl-2-oxopyridin-1(2H)-yl]-N-(3-hydroxyphenyl) acetamide] | – | – | 187 to 189 °C (dec.) | 40.1 ± 7.2 µM | 50% | 37.6 ± 5.6 µM | 150% | –
18 | Cc1c(-c2cccc(O)c2)cc(C#N)c(=O)n1CC(=O)Nc1ccc(O)cc1 [Compound 14c, 2-[3-Cyano-5-(3-hydroxyphenyl)-6-methyl-2-oxopyridin-1(2H)-yl]-N-(4-hydroxyphenyl) acetamide] | – | – | 232 to 234 °C (dec.) | – | – | – | – | –
